Laboratory results as given in patent US20240101576A1, “HETEROCYCLIC INHIBITORS OF EGFR AND/OR HER2, FOR USE IN THE TREATMENT OF CANCER” (Scorpion Therapeutics, Inc., priority 2020, published 2024).

Assays:
Assay type in all cases: cell-based
[1] = target: T1, EGFR L858R (Ba/F3 cells) (Homo sapiens, UniProt P00533, L858R); assay: Inhibitor activity on EGFR-dependent cell growth (CellTiter-Glo, 72 h), Ba/F3 EGFR L858R; conditions: read-out: BaF3 L858R IC50
T1 construct: expressed in transfected cells; host or cells: Ba/F3 (murine pro-B cells), retroviral transduction, puromycin selection, IL3-independent pool
Summary of the method: (§1)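 Steps: seed Ba/F3 EGFR-mutant pools (800 cells/well FQEA and exon 19del; 600 L858R/C797S; 400 L858R). Add 120 nL of serially diluted compound and incubate 72 h. Equilibrate to room temperature, add CellTiter-Glo and read after 30 min. Fit IC50.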

[2] = target: T2, EGFR exon 19del (Ba/F3 cells) (Homo sapiens, UniProt P00533); assay: Inhibitor activity on EGFR-dependent cell growth (CellTiter-Glo, 72 h), Ba/F3 EGFR exon 19del; conditions: Ba/F3 EGFR exon 19del cell growth, read-out: BaF3 Del19 IC50
T2 sequence (P00533 with tags, fused parts or gaps DEL746-750): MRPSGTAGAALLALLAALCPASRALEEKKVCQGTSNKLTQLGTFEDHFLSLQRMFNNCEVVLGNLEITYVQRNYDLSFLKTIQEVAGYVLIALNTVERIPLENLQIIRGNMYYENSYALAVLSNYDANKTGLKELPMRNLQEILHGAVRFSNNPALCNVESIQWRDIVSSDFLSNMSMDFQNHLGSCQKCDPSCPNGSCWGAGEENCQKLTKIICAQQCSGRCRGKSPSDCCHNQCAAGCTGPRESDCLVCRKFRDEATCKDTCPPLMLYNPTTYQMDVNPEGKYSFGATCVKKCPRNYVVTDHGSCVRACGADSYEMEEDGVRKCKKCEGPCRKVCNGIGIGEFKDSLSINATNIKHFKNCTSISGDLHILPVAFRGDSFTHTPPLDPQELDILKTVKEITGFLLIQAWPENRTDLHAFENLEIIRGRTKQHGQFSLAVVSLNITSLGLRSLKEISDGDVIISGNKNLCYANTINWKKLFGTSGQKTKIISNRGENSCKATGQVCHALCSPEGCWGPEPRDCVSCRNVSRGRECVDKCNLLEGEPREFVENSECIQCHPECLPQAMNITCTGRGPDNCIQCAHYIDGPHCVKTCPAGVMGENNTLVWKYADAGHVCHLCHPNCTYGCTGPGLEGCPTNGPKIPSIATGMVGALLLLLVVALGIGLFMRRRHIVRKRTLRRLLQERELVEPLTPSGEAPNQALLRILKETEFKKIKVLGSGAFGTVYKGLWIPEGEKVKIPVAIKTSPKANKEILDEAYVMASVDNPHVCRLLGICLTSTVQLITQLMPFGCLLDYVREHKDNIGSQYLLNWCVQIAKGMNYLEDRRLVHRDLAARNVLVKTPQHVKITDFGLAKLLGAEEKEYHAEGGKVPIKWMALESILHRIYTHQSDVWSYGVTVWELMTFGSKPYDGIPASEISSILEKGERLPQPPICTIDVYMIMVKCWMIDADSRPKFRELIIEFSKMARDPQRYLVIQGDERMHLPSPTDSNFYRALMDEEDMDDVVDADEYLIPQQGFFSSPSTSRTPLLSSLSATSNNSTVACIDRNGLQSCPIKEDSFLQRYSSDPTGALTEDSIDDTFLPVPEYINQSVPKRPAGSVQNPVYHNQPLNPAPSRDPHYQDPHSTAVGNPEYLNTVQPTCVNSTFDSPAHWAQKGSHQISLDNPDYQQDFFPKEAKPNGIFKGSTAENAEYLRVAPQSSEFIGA
Summary of the method: as §1

[3] = target: T3, EGFR L858R/C797S (Ba/F3 cells) (Homo sapiens, UniProt P00533, C797S/L858R); assay: Inhibitor activity on EGFR-dependent cell growth (CellTiter-Glo, 72 h), Ba/F3 EGFR L858R/C797S; conditions: read-out: BaF3 L858R/C797S IC50
T3 construct: expressed in transfected cells; host or cells: Ba/F3 (murine pro-B cells), retroviral transduction, puromycin selection, IL3-independent pool
Source text: Example A. Inhibitor Activity on EGFR-Dependent Cell Growth
Cell lines are generated by transducing Ba/F3 cells with retroviruses containing vectors with EGFR WT, EGFR L858R, EGFR exon 19del, EGFR L858R/C797S, EGFR exon 20 NPG Ins D770_N771, EGFR exon 20 ASV Ins V769_D770, EGFR exon 20 SVD Ins D770_N771, or EGFR exon 20 FQEA Ins A763_V764 genes and a puromycin selection marker. Transduced cells are selected with puromycin for 7 days and are then be transferred into culture media without Interleukin 3 (IL3). EGFR WT cells are maintained with supplemental EGF. Surviving cells are confirmed to express EGFR by Western blot and maintained as a pool. The IC50 date were included in Table 6 and Table 7.
(§2) 1.1 Cells are harvested from flask into cell culture medium and the cell number counted.
1.2 Cells are diluted with culture medium to the desired density and 40 μL of cell suspension is added into each well of 384-well cell culture plate and the seeding density is 800 (FQEA, exon 19del), 600 (WT, NPG, L858R/C797S), or 400 (ASV, SVD, L858R) cells/well.
(§3) 2 Compound Preparation and Treatment
(§4) 2.1 Test compounds are dissolved to 10 mM in a DMSO stock solution. 45 μL of stock solution is transferred to a 384 polypropylene plate (pp-plate). Perform 3-fold, 10-point dilution via transferring 15 μL compound into 30 μL DMSO using a TECAN (EVO200) liquid handler.
(§5) 2.2 Spin plates at room temperature at 1,000 RPM for 1 minute.
2.3 Transfer 120 nL of diluted compound from compound source plate into the cell plate.
2.4 After compound treatment for 72 hours, perform CTG detection for compound treatment plates as described in “Detection” section.
3.1 Plates are removed from incubators and equilibrated at room temperature for 15 minutes.
3.2 Thaw the CellTiter Glo reagents and allow to equilibrate to room temperature before the experiment.
3.3 Add 40 μL of CellTiter-Glo reagent into each well (at 1:1 to culture medium). Then place the plates at room temperature for 30 min followed by reading on EnVision.
4.1 Inhibition activity is calculated following the formula below:
% Inhibition=100×(LumHC−LumSample)/(LumHC−LumLC) • where HC is obtained from cells treated with 0.1% DMSO only; and LC is obtained from culture medium only.
4.2 2. Calculate the IC50 by fitting the Curve using Xlfit (v5.3.1.3), equation 201.
Y=Bottom+(Top−Bottom)/(1+10^((Log IC50−X)*HillSlope))

[4] = target: T1, EGFR L858R (Ba/F3 cells); assay: Inhibitor activity on EGFR phosphorylation (pEGFR AlphaLISA, 2 h), Ba/F3 EGFR L858R
Source text: (§6) Example B. Inhibitor Activity on EGFR phosphorylation (pEGFR)
(§7) EGFR mutant Ba/F3 cells were generated by transduction with retrovirus containing vectors expressing EGFR L858R, EGFR exon 19del, EGFR L858R/C797S, EGFR exon 20 NPG Ins D770_N771, EGFR exon 20 ASV Ins V769_D770, or EGFR exon 20 SVD Ins D770_N771 genes along with a puromycin selection marker. Transduced cells are selected with puromycin for 7 days and are then be transferred into culture media without Interleukin 3 (IL3). Surviving cells are confirmed to express EGFR by Western blot and maintained as a pool. CUTO14 cells were obtained from Dr. Robert C. Doebele at the University of Colorado. The IC50 date are included in Table 6 and Table 7.
as §2
(§8) 1.2 Cells are diluted with culture medium to the desired density and 40 μL of cell suspension is added into each well of 384-well cell culture plate and the seeding density is 50K cells/well (Ba/F3) or 12.5K cells/well (CUTO14).
as §3, §4, §5
(§9) 2.3 Transfer 5 nL of diluted compound from compound source plate into the cell plate.
(§10) 2.4 After compound treatment for 2 hours, perform pEGFR detection by AlphaLISA for compound treatment plates as described in “Detection” section.
(§11) 3 Detection by pEGFR AlphaLISA (Perkin-Elmer)
(§12) 3.1 Plates are removed from incubators and equilibrated at room temperature for 10 minutes, and media was removed
(§13) 3.2 10 μL of lysis buffer is added and plates shaken at 600 rpm for 1 hr.
(§14) 3.3 Prepare acceptor mix just before use and dispense 5 μL of acceptor mix to all the wells. Shake 350 rpm for Ihr in the dark
(§15) 3.4 Prepare donor mix under low light conditions prior to use. Dispense 5 μL of donor mix to all the wells. Mix well on the shaker, seal and wrap in aluminum foil and incubate 1.5 hrs at room temperature in the dark
(§16) 3.5 Transfer 18.5 μL mixture to OptiPlate 384, and read using an Envision. The IC50 date were included in Table 6 and Table 7.

[5] = target: T2, EGFR exon 19del (Ba/F3 cells); assay: Inhibitor activity on EGFR phosphorylation (pEGFR AlphaLISA, 2 h), Ba/F3 EGFR exon 19del; conditions: read-out: Del19 IC50 (pEGFR)
Source text: as §6, §7, §2, §8, §3, §4, §5, §9, §10, §11, §12, §13, §14, §15, §16

[6] = target: T3, EGFR L858R/C797S (Ba/F3 cells); assay: Inhibitor activity on EGFR phosphorylation (pEGFR AlphaLISA, 2 h), Ba/F3 EGFR L858R/C797S
Source text: as §6, §7, §2, §8, §3, §4, §5, §9, §10, §11, §12, §13, §14, §15, §16

[7] = target: T4, EGFR WT (Ba/F3 cells) (Homo sapiens, UniProt P00533); assay: Inhibitor activity on EGFR-dependent cell growth (CellTiter-Glo, 72 h), Ba/F3 EGFR WT; conditions: read-out: BaF3 WT IC50
T4 construct: expressed in transfected cells; host or cells: Ba/F3 (murine pro-B cells), retroviral transduction, puromycin selection, maintained with EGF
T4 sequence (P00533 25-1210): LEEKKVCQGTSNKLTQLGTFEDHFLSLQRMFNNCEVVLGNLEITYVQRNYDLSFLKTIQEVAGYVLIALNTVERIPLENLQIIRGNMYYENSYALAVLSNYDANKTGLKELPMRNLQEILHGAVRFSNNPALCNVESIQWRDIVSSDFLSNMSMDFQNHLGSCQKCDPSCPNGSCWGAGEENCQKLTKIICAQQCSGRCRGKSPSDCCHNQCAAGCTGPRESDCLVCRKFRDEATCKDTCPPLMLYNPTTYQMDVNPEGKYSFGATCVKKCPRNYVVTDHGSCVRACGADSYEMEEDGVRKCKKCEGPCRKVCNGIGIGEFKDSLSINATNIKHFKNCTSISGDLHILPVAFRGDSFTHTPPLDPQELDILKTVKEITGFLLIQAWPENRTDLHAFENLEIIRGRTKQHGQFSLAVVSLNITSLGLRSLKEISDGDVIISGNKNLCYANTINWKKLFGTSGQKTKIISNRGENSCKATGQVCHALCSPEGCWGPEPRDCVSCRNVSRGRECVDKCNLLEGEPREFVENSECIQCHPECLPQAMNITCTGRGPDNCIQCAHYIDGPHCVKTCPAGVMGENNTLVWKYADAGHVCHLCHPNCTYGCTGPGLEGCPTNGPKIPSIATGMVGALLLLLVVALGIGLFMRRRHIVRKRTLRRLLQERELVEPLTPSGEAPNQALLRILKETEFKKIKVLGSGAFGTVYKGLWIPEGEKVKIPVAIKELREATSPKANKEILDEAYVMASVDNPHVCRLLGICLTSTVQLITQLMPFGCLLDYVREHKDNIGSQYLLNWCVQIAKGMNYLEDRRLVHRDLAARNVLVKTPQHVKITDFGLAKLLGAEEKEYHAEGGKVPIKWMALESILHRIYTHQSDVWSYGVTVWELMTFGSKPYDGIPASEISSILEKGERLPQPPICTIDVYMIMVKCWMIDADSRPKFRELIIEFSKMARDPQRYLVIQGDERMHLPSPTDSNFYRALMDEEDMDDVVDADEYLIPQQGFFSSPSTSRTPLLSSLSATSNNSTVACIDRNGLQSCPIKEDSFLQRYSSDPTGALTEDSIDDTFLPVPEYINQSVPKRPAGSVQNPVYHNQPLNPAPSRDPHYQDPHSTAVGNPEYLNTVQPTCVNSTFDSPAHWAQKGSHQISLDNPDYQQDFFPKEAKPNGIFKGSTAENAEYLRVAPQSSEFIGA
Summary of the method: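 This growth assay used Ba/F3 cells that depend on wild-type EGFR and are kept in EGF without IL3. Compounds were made up as 10 mM DMSO stocks and diluted 3-fold over 10 points. 120 nL went onto 600 cells/well. After 72 hours, 40 μL CellTiter-Glo was added and luminescence read on EnVision after 30 min.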

[8] = target: T5, EGFR exon 20 ASV Ins V769_D770 (Ba/F3 cells) (Homo sapiens, UniProt P00533, INS769ASV); assay: Inhibitor activity on EGFR-dependent cell growth (CellTiter-Glo, 72 h), Ba/F3 EGFR exon 20 ASV Ins; conditions: read-out: BaF3 ASV IC50
T5 construct: expressed in transfected cells; host or cells: Ba/F3 (murine pro-B cells), retroviral transduction, puromycin selection, IL3-independent pool
T5 sequence (P00533 with tags, fused parts or gaps INS769ASV): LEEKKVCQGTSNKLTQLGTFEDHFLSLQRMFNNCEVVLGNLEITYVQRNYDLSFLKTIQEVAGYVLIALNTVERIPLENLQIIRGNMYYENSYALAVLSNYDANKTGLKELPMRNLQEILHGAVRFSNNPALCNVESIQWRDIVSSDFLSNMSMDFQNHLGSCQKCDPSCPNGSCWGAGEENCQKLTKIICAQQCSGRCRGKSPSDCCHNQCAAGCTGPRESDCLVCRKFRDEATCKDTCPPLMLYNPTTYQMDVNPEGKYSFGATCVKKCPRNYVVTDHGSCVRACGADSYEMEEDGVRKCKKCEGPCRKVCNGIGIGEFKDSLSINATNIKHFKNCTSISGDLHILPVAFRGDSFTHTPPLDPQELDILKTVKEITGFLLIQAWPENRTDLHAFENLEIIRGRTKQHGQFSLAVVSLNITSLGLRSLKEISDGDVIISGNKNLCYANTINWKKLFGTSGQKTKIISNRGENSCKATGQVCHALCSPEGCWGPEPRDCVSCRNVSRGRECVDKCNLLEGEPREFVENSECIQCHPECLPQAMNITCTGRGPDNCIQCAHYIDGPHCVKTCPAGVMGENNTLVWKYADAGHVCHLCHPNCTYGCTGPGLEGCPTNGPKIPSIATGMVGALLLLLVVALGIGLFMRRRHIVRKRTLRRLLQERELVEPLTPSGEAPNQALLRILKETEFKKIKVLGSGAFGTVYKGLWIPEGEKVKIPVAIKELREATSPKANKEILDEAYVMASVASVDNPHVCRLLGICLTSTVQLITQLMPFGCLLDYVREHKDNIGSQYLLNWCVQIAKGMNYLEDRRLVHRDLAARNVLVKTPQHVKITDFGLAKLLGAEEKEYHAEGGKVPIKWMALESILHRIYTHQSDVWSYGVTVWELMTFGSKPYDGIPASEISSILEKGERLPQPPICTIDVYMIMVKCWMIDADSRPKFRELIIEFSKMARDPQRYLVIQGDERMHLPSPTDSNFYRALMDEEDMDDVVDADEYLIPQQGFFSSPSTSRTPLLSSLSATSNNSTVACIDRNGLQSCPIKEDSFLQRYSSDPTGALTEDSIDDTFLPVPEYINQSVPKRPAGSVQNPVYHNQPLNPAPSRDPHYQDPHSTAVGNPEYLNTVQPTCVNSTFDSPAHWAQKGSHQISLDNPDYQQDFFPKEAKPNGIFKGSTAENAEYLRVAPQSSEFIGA
Summary of the method: (§17)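 IC50s derive from a sigmoidal dose–response fit of CellTiter-Glo signal. The signal was normalised between […]-treated cells and cell-free medium. Ba/F3 mutant-EGFR cells, seeded at 400–800/well depending on the line, had 72 h of exposure to a 10-point, 3-fold compound series.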

[9] = target: T6, EGFR exon 20 SVD Ins D770_N771 (Ba/F3 cells) (Homo sapiens, UniProt P00533, INS770SVD); assay: Inhibitor activity on EGFR-dependent cell growth (CellTiter-Glo, 72 h), Ba/F3 EGFR exon 20 SVD Ins; conditions: read-out: BaF3 SVD IC50
T6 construct: expressed in transfected cells; host or cells: Ba/F3 (murine pro-B cells), retroviral transduction, puromycin selection, IL3-independent pool
T6 sequence (P00533 with tags, fused parts or gaps INS770SVD): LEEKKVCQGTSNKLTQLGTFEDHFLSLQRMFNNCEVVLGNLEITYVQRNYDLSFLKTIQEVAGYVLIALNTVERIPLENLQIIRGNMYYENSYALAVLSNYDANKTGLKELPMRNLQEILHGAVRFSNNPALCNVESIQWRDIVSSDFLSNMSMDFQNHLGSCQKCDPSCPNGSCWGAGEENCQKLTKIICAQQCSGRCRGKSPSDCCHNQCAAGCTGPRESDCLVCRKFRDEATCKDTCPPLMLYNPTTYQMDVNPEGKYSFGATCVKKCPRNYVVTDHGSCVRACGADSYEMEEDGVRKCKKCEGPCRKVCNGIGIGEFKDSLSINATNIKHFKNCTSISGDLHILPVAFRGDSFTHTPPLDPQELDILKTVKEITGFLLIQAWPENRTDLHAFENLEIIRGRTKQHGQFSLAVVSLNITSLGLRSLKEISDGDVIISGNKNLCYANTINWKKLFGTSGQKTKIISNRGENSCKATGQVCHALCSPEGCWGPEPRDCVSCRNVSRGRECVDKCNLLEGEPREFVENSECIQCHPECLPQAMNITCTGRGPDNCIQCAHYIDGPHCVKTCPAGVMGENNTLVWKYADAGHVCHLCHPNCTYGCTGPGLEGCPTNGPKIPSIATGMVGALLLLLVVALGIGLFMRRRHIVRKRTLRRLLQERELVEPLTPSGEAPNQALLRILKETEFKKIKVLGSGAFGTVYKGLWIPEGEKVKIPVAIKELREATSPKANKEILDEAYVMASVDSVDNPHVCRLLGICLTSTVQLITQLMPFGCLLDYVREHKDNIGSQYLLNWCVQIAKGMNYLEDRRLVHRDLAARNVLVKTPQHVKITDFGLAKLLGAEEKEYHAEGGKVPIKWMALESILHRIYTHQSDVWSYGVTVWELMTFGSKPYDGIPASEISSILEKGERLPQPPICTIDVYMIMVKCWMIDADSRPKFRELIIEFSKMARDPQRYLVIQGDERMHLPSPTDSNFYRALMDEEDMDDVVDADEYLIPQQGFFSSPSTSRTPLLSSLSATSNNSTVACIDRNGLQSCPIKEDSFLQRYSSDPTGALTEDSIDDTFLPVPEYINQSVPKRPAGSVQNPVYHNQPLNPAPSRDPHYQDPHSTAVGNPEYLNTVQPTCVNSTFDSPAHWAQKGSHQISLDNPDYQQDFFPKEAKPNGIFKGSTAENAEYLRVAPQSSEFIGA
Summary of the method: as §17

[10] = target: T7, EGFR exon 20 FQEA Ins A763_V764 (Ba/F3 cells) (Homo sapiens, UniProt P00533, INS763FQEA); assay: Inhibitor activity on EGFR-dependent cell growth (CellTiter-Glo, 72 h), Ba/F3 EGFR exon 20 FQEA Ins; conditions: read-out: BaF3 FQEA IC50
T7 construct: expressed in transfected cells; host or cells: Ba/F3 (murine pro-B cells), retroviral transduction, puromycin selection, IL3-independent pool
Summary of the method: as §1

SMILES	IC50 [1]	IC50 [2]	IC50 [3]	IC50 [4]	IC50 [5]	IC50 [6]	IC50 [7]	IC50 [8]	IC50 [9]	IC50 [10]
COc1c(Cl)cccc1Nc1c(-c2ccncc2F)[nH]c2c1C(=O)NC[C@H]2CC(F)F [Compound 820, (7R)-3-[(3-chloro-2-methoxyphenyl)amino]-7-(2,2-difluoroethyl)-2-(3-fluoropyridin-4-yl)-1H,5H,6H,7H-pyrrolo[3,2-c]pyridin-4-one]	< 0.1 µM	< 0.1 µM	< 0.1 µM	< 0.1 µM	< 0.1 µM	< 0.1 µM	> 1 µM	0.1 to 1 µM	0.1 to 1 µM	0.1 to 1 µM
COc1c(F)cccc1Nc1c(-c2ccnc3ccc(C)nc23)[nH]c2c1C(=O)NCC2 [Compound 809, 3-[(3-fluoro-2-methoxyphenyl)amino]-2-(6-methyl-1,5-naphthyridin-4-yl)-1H,5H,6H,7H-pyrrolo[3,2-c]pyridin-4-one]	< 0.1 µM	< 0.1 µM	< 0.1 µM	< 0.1 µM	< 0.1 µM	< 0.1 µM	0.1 to 1 µM	< 0.1 µM	< 0.1 µM	< 0.1 µM
COc1c(Cl)cccc1Nc1c(-c2ccncc2F)[nH]c2c1C(=O)NC[C@@]21CCN(CC(F)F)C1 [compound 822]	< 0.1 µM	< 0.1 µM	< 0.1 µM	< 0.1 µM	< 0.1 µM	< 0.1 µM	> 1 µM	0.1 to 1 µM	< 0.1 µM	0.1 to 1 µM
COc1c(Cl)cccc1Nc1c(-c2ccnc3ccc(OCC(F)F)nc23)[nH]c2c1C(=O)NCC2 [compound 733, 3-[(3-chloro-2-methoxyphenyl)amino]-2-[6-(2,2-difluoroethoxy)-1,5-naphthyridin-4-yl]-1H,5H,6H,7H-pyrrolo[3,2-c]pyridin-4-one]	< 0.1 µM	< 0.1 µM	< 0.1 µM	< 0.1 µM	< 0.1 µM	< 0.1 µM	0.1 to 1 µM	< 0.1 µM	< 0.1 µM	< 0.1 µM
COc1c(Cl)cccc1Nc1c(-c2ccncc2F)[nH]c2c1C(=O)NCC21CCOCC1 [Compound 778, 3′-[(3-chloro-2-methoxyphenyl)amino]-2′-(3-fluoropyridin-4-yl)-5′,6′-dihydro-1′H-spiro[oxane-4,7′-pyrrolo[3,2-c]pyridin]-4′-one]	< 0.1 µM	< 0.1 µM	< 0.1 µM	< 0.1 µM	< 0.1 µM	0.1 to 1 µM	> 1 µM	0.1 to 1 µM	0.1 to 1 µM	0.1 to 1 µM
